Assay results published in patent US8334382B2, “Substituted biaryl piperazinyl-pyridine analogues” (Neurogen Corporation, priority 2004, dated 2012).

The molecules below were run against T1, human capsaicin receptor (Homo sapiens, UniProt Q8NER1) (assay: Calcium mobilization assay, determination of antagonist activity). Conditions: capsaicin at EC50; cells expressing human capsaicin receptor; Example 6.
T1 construct: expressed in transfected cells; host or cells: HEK293, stably transfected with pBK-CMV construct
T1 sequence (Q8NER1 whole entry): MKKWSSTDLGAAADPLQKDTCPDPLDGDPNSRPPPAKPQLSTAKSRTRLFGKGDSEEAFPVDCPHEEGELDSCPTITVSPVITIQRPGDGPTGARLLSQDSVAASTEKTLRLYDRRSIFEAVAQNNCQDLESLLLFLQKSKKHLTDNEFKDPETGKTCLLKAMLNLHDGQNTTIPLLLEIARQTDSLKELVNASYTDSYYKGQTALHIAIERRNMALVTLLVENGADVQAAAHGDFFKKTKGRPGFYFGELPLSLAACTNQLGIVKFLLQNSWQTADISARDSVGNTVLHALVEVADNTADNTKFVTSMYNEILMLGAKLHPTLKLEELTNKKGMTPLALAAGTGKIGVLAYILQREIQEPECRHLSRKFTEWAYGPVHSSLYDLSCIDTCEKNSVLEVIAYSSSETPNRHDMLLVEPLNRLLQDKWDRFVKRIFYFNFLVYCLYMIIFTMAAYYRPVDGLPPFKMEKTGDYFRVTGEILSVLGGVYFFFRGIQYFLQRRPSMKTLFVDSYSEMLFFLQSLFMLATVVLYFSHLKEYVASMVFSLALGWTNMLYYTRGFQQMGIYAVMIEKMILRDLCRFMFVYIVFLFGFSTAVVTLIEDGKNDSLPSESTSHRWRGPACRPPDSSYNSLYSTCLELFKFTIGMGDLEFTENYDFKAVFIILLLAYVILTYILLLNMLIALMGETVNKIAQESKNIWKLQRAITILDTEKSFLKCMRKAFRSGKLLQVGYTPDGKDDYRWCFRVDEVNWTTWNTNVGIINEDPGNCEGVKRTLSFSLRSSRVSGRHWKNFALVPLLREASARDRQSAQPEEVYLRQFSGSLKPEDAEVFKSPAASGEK
Type: cell-based
Procedure: A cDNA encoding full length human capsaicin receptor (SEQ ID NO:1, 2 or 3 of U.S. Pat. No. 6,482,611) is subcloned in the plasmid pBK-CMV (Stratagene, La Jolla, Calif.) for recombinant expression in mammalian cells.
Human embryonic kidney (HEK293) cells are transfected with the pBK-CMV expression construct encoding the full length human capsaicin receptor using standard methods. The transfected cells are selected for two weeks in media containing G418 (400 μg/ml) to obtain a pool of stably transfected cells. Independent clones are isolated from this pool by limiting dilution to obtain clonal stable cell lines for use in subsequent experiments.
Cells transfected with expression plasmids (as described in Example 4) and thereby expressing human capsaicin receptor are seeded and grown to 70-90% confluency in FALCON black-walled, clear-bottomed 96-well plates (#3904, BECTON-DICKINSON, Franklin Lakes, N.J.). The culture medium is emptied from the 96 well plates and FLUO-3 AM calcium sensitive dye (Molecular Probes, Eugene, Oreg.) is added to each well (dye solution: 1 mg FLUO-3 AM, 440 μL DMSO and 440 μl 20% pluronic acid in DMSO, diluted 1:250 in Krebs-Ringer HEPES (KRH) buffer (25 mM HEPES, 5 mM KCl, 0.96 mM NaH2PO4, 1 mM MgSO4, 2 mM CaCl2, 5 mM glucose, 1 mM probenecid, pH 7.4), 50 μl diluted solution per well). Plates are covered with aluminum foil and incubated at 37° C. for 1-2 h in an environment containing 5% CO2. After the incubation, the dye is emptied from the plates, and the cells are washed once with KRH buffer, and resuspended in KRH buffer.
To measure the ability of a test compound to agonize or antagonize a calcium mobilization response in cells expressing capsaicin receptors to capsaicin or other vanilloid agonist, the EC50 of the agonist capsaicin is first determined. An additional 20 μl of KRH buffer and 1 μl DMSO is added to each well of cells, prepared as described above. 100 μl capsaicin in KRH buffer is automatically transferred by the FLIPR instrument to each well. Capsaicin-induced calcium mobilization is monitored using either FLUOROSKAN ASCENT (Labsystems; Franklin, Mass.) or FLIPR (fluorometric imaging plate reader system; Molecular Devices, Sunnyvale, Calif.) instruments. Data obtained between 30 and 60 seconds after agonist application are used to generate an 8-point concentration response curve, with final capsaicin concentrations of 1 nM to 3 μM. KALEIDAGRAPH software (Synergy Software, Reading, Pa.) is used to fit the data to the equation: y=a*(1/(1+(b/x)^c)) to determine the 50% excitatory concentration (EC50) for the response. In this equation, y is the maximum fluorescence signal, x is the concentration of the agonist or antagonist (in this case, capsaicin), a is the Emax, b corresponds to the EC50 value and c is the Hill coefficient. Determination of Agonist Activity
Test compounds are dissolved in DMSO, diluted in 20 μl KRH buffer so that the final concentration of test compounds in the assay well is between 1 μM and 5 μM, and added to cells prepared as described above. The 96 well plates containing prepared cells and test compounds are incubated in the dark, at room temperature for 0.5 to 6 h. It is important that the incubation not continue beyond 6 h. Just prior to determining the fluorescence response, 100 μl capsaicin in KRH buffer at twice the EC50 concentration determined as described above is automatically added by the FLIPR instrument to each well of the 96 well plate for a final sample volume of 200 μl and a final capsaicin concentration equal to the EC50. The final concentration of test compounds in the assay wells is between 1 μM and 5 μM. […] The concentration of antagonist required to provide a 50% decrease, relative to the response observed in the presence of capsaicin and without antagonist, is the IC50 for the antagonist, and is preferably below 1 micromolar, 100 nanomolar, 10 nanomolar or 1 nanomolar.

IC50, ≤ 1 µM:
CCOC(=O)c1cnc(N2CCN(c3cc(-c4ccccc4)nc(N4CCCC4C)n3)[C@H](C)C2)c(Cl)c1 (stereo partly drawn) [Example 41, 5-Chloro-6-{3-(R)-methyl-4-[2-(2-methyl-pyrrolidin-1-yl)-6-phenyl-pyrimidin-4-yl]-piperazin-1-yl}-nicotinic acid ethyl ester]
CCOC(=O)c1cnc(N2CCN(c3cc(-c4cncc(Cl)c4)nc(N4CCCC4C)n3)[C@H](C)C2)c(Cl)c1 (stereo partly drawn) [Example 42, 5-Chloro-6-{4-[6-(5-chloro-pyridin-3-yl)-2-(2-methyl-pyrrolidin-1-yl)-pyrimidin-4-yl]-3-(R)-methyl-piperazin-1-yl}-nicotinic acid ethyl ester]
CCOC(=O)c1cnc(N2CCN(c3cc(-c4ccnc(C(C)C)c4)nc(N4CCCC4C)n3)[C@H](C)C2)c(Cl)c1 (stereo partly drawn) [Example 43, 5-Chloro-6-{4-[6-(2-isopropyl-pyridin-4-yl)-2-(2-methyl-pyrrolidin-1-yl)-pyrimidin-4-yl]-3-(R)-methyl-piperazin-1-yl}-nicotinic acid ethyl ester]
Cc1cc(C(N)=O)cnc1N1CCN(c2cc(-c3ccc(F)cc3)nc(N3CCCC3C)n2)[C@H](C)C1 (stereo partly drawn) [Example 44, 6-{4-[6-(4-Fluoro-phenyl)-2-(2-methyl-pyrrolidin-1-yl)-pyrimidin-4-yl]-3-(R)-methyl-piperazin-1-yl}-5-methyl-nicotinamide]
Cc1cc(C(N)=O)cnc1N1CCN(c2cc(-c3ccc(F)cc3)nc(N3CCCC3C)n2)CC1 (stereo not shown) [Example 45, 6-{4-[6-(4-Fluoro-phenyl)-2-(2-methyl-pyrrolidin-1-yl)-pyrimidin-4-yl]-piperazin-1-yl}-5-methyl-nicotinamide]
CCOC(=O)c1cnc(N2CCN(c3cc(-c4cccc(C)c4)nc(N4CCCC4C)n3)[C@H](C)C2)c(Cl)c1 (stereo partly drawn) [Example 46, 5-Chloro-6-{3-(R)-methyl-4-[2-(2-methyl-pyrrolidin-1-yl)-6-m-tolyl-pyrimidin-4-yl]-piperazin-1-yl}-nicotinic acid ethyl ester]
CC1CCCN1c1nc(-c2ccccc2)cc(N2CCN(c3ncc(CO)cc3Cl)C[C@H]2C)n1 (stereo partly drawn) [Example 47, (5-Chloro-6-{3-(R)-methyl-4-[2-(2-methyl-pyrrolidin-1-yl)-6-phenyl-pyrimidin-4-yl]-piperazin-1-yl}-pyridin-3-yl)-methanol]
Cc1cccc(-c2cc(N3CCN(c4ncc(CO)cc4Cl)C[C@H]3C)nc(N3CCCC3C)n2)c1 (stereo partly drawn) [Example 48, (5-Chloro-6-{3-(R)-methyl-4-[2-(2-methyl-pyrrolidin-1-yl)-6-m-tolyl-pyrimidin-4-yl]-piperazin-1-yl}-pyridin-3-yl)-methanol]
CC1CCCN1c1nc(-c2cncc(Cl)c2)cc(N2CCN(c3ncc(CO)cc3Cl)C[C@H]2C)n1 (stereo partly drawn) [Example 49, (5-Chloro-6-{4-[6-(5-chloro-pyridin-3-yl)-2-(2-methyl-pyrrolidin-1-yl)-pyrimidin-4-yl]-3-(R)-methyl-piperazin-1-yl}-pyridin-3-yl)-methanol]
CC(C)c1cc(-c2cc(N3CCN(c4ncc(CO)cc4Cl)C[C@H]3C)nc(N3CCCC3C)n2)ccn1 (stereo partly drawn) [Example 50, (5-Chloro-6-{4-[6-(2-isopropyl-pyridin-4-yl)-2-(2-methyl-pyrrolidin-1-yl)-pyrimidin-4-yl]-3-(R)-methyl-piperazin-1-yl}-pyridin-3-yl)-methanol]
Cc1cccc(-c2cc(N3CCN(c4ncc(C(=O)O)cc4Cl)C[C@H]3C)nc(N3CCCC3C)n2)c1 (stereo partly drawn) [Example 51, 5-Chloro-6-{3-(R)-methyl-4-[2-(2-methyl-pyrrolidin-1-yl)-6-m-tolyl-pyrimidin-4-yl]-piperazin-1-yl}-nicotinic acid]
CC1CCCN1c1nc(-c2cncc(Cl)c2)cc(N2CCN(c3ncc(C(=O)O)cc3Cl)C[C@H]2C)n1 (stereo partly drawn) [Example 52, 5-Chloro-6-{4-[6-(5-chloro-pyridin-3-yl)-2-(2-methyl-pyrrolidin-1-yl)-pyrimidin-4-yl]-3-(R)-methyl-piperazin-1-yl}-nicotinic acid]
CC(C)c1cc(-c2cc(N3CCN(c4ncc(C(=O)O)cc4Cl)C[C@H]3C)nc(N3CCCC3C)n2)ccn1 (stereo partly drawn) [Example 53, 5-Chloro-6-{4-[6-(2-isopropyl-pyridin-4-yl)-2-(2-methyl-pyrrolidin-1-yl)-pyrimidin-4-yl]-3-(R)-methyl-piperazin-1-yl}-nicotinic acid]
CCOC(=O)c1cnc(N2CCN(c3cc(-c4ccccc4)nc(N4CCCC4C)n3)CC2)c(C)c1 (stereo not shown) [Example 54, 5-Methyl-6-{4-[2-(2-methyl-pyrrolidin-1-yl)-6-phenyl-pyrimidin-4-yl]-piperazin-1-yl}-nicotinic acid ethyl ester]
CCOC(=O)c1cnc(N2CCN(c3cc(-c4cccc(C)c4)nc(N4CCCC4C)n3)CC2)c(C)c1 (stereo not shown) [Example 55, 5-Methyl-6-{4-[2-(2-methyl-pyrrolidin-1-yl)-6-m-tolyl-pyrimidin-4-yl]-piperazin-1-yl}-nicotinic acid ethyl ester]
CCOC(=O)c1cnc(N2CCN(c3cc(-c4ccncc4)nc(N4CCCC4C)n3)CC2)c(C)c1 (stereo not shown) [Example 56, 5-Methyl-6-{4-[2-(2-methyl-pyrrolidin-1-yl)-6-pyridin-4-yl-pyrimidin-4-yl]-piperazin-1-yl}-nicotinic acid ethyl ester]
CCOC(=O)c1cnc(N2CCN(c3cc(-c4ccnc(C(C)C)c4)nc(N4CCCC4C)n3)CC2)c(C)c1 (stereo not shown) [Example 57, 6-{4-[6-(2-Isopropyl-pyridin-4-yl)-2-(2-methyl-pyrrolidin-1-yl)-pyrimidin-4-yl]-piperazin-1-yl}-5-methyl - nicotinic acid ethyl ester]
CCOC(=O)c1cnc(N2CCN(c3cc(-c4ccccc4)nc(N4CCCC4C)n3)[C@H](C)C2)c(C)c1 (stereo partly drawn) [Example 58, 5-Methyl-6-{3-(R)-methyl-4-[2-(2-methyl-pyrrolidin-1-yl)-6-phenyl-pyrimidin-4-yl]-piperazin-1-yl}-nicotinic acid ethyl ester]
CCOC(=O)c1cnc(N2CCN(c3cc(-c4cccc(C)c4)nc(N4CCCC4C)n3)[C@H](C)C2)c(C)c1 (stereo partly drawn) [Example 59, 5-Methyl-6-{3-(R)-methyl-4-[2-(2-methyl-pyrrolidin-1-yl)-6-m-tolyl-pyrimidin-4-yl]-piperazin-1-yl}-nicotinic acid ethyl ester]
CCOC(=O)c1cnc(N2CCN(c3cc(-c4ccncc4)nc(N4CCCC4C)n3)[C@H](C)C2)c(C)c1 (stereo partly drawn) [Example 60, 5-Methyl-6-{3-(R)-methyl-4-[2-(2-methyl-pyrrolidin-1-yl)-6-pyridin-4-yl-pyrimidin-4-yl] -piperazin-1-yl}-nicotinic acid ethyl ester]
CCOC(=O)c1cnc(N2CCN(c3cc(-c4ccnc(C(C)C)c4)nc(N4CCCC4C)n3)[C@H](C)C2)c(C)c1 (stereo partly drawn) [Example 61, 6-{4-[6-(2-Isopropyl-pyridin-4-yl)-2-(2-methyl-pyrrolidin-1-yl)-pyrimidin-4-yl]-3-(R)-methyl-piperazin-1-yl}-5-methyl-nicotinic acid ethyl ester]
CCOC(=O)c1cnc(N2CCN(c3cc(-c4ccc(F)cc4)nc(N(C)C)n3)[C@H](C)C2)c(C)c1 [Example 62, 6-{4-[2-Dimethylamino-6-(4-fluoro-phenyl)-pyrimidin-4-yl]-3-(R)-methyl-piperazin-1-yl}-5-methyl-nicotinic acid ethyl ester]
